Data published in paper PMC5190008, “BO-1055, a novel DNA cross-linking agent with remarkable low myelotoxicity shows potent activity in sarcoma models” (Oncotarget, 2016).

Experiments:
[1] = In vivo toxicity testing: complete blood counts, renal and liver function tests; conditions: C57 healthy mice
From the text: However myelotoxicity has been a challenge, resulting in delay in treatment cycles and infectious complications. Hematopoietic toxicity was partly alleviated by the administration of G-CSF [32] and allowed dose-escalation. […] Overcoming hematopoietic and organ toxicities will allow us to administer chemotherapy at a higher dose and at a shorter interval, which can potentially result in better cure rates. […] This was also seen in the in vivo toxicity study in C57 healthy mice where hematologic toxicity was not observed at day 10 after 5 doses of BO-1055 at 30mg/kg/dose (Supplementary Table 1). […]
Supplementary table 1. Complete blood counts, renal and […] function tests in C57 healthy mice (n=4 per group) in control and treatment groups. Treatment group received BO--1055 at 30mg/kg/dose on days […]
Control group BO--1055 group Control group BO--1055 group baseline baseline day 10 day 10
Mean SD Mean SD Mean SD Mean SD

[2] = tested on: Ewing sarcoma cell lines; assay: Alamar Blue cell proliferation assay; format: cell-based, human
Protocol: (§1) AlamarBlue® assay (Invitrogen, Carlsbad, CA, USA) was performed to evaluate anti-proliferative activity of the drugs in cell lines and primary cells. Cells were plated in 96-well plates ([…] in 200 μL of medium). After 12 h, one of the previously mentioned drugs was added to each well at the specified concentration and incubated for 72 h. At the end of the incubation period, 20 μL of stock solution (0.312 mg/mL) of the Alamar Blue was added to each well. The absorbance was measured using the Synergy H1 hybrid multi-mode microplate reader (BioTek, USA). The drug effect was quantified as the percentage of control absorbance at 540 nm and 585 nm. Optical density was determined for 3 replicates per treatment condition and cell proliferation in drug-treated cells was normalized to their respective controls. All experiments were performed in triplicate.
(§2) Data are presented as mean±S.E.M. of at least three independent experiments done in triplicate. […] Combination index (CI) values, as calculated by CompuSyn software (Chou and Martin, 2007), were used to evaluate the interaction between BO-1055 and a second drug (Topotecan, SN38, Doxorubicin or PU-H71). The Chou-Talalay method was used to quantify the synergism (CI < 1), additive effect (CI = 1) and antagonism (CI > 1) of various drug combinations.

[3] = tested on: rhabdomyosarcoma cell lines; assay: Alamar Blue cell proliferation assay; format: cell-based, human
Protocol: as §1, §2

[4] = tested on: A673 cells; assay: Comet assay; format: cell-based, human; conditions: A673, 3h
Protocol: (§3) We used comet assay, which includes single cell gel electrophoresis to assess DNA breaks when exposed to radiation or DNA damaging agents. […] Olive moment (micrometers), a product of tail DNA% and the distance between the centroids of head and tail, is an accurate parameter of DNA damage. […] Gamma-H2AX (γH2AX) phosphorylation is the initial step in DNA damage response following double stranded breaks and is responsible for recruiting DNA repair proteins.
Comet assay was performed according to the protocol described earlier. […] The cells in agarose were transferred to slides coated with normal melting point agarose. The agarose-immobilized cells were lysed in alkaline solution and the agarose trapped DNA was electrophoresed. DNA was stained with ethidium bromide and image acquisition was done immediately. DNA damage quantification was performed using OpenComet v1.3, an open-source software plugin in Image J 1.47v software (NIH, USA) for automated analysis. Olive moment, which is the product of tail DNA% and the distance between the intensity-weighted centroids of head and tail was taken from the output for analysis.

[5] = tested on: Human MSC; assay: Comet assay; format: cell-based; conditions: 3h
Protocol: as §3
Comet assay was performed according to the protocol described earlier. Cells were treated with BO-1055 at 2μM concentration for 3h, or immediately after exposure to 8Gy radiation after which they were isolated and mixed with 1% low melting point agarose in a tube. The cells in agarose were transferred to slides coated with normal melting point agarose. The agarose-immobilized cells were lysed in alkaline solution and the agarose trapped DNA was electrophoresed. DNA was stained with ethidium bromide and image acquisition was done immediately. DNA damage quantification was performed using OpenComet v1.3, an open-source software plugin in Image J 1.47v software (NIH, USA) for automated analysis. Olive moment, which is the product of tail DNA% and the distance between the intensity-weighted centroids of head and tail was taken from the output for analysis.

[6] = set-up: method as in PMID 23353940; conditions: rats, HPLC-PDA ref 7; cited from earlier work
[7] = tested on: A673 cells; assay: Drug combination study (Alamar Blue, Chou-Talalay combination index); format: cell-based, human
Protocol: The AlamarBlue® cell proliferation assay was used to test the effect of a single drug and a combination of drugs. A673 cells (5 × 10^3 cells/well) were added to 96 well plates in triplicate. After 12h incubation, BO-1055 and a second drug (Topotecan, SN38, Doxorubicin or PU-H71) were added simultaneously in a lattice format in varying concentrations. Plates were read after 72h drug exposure. Combination indices were derived as described below to identify the interaction in two-drug combinations.
Data are presented as mean±S.E.M. of at least three independent experiments done in triplicate. The comparison of means between treated and control mice was performed using two-tailed T-test or ANOVA (for more than two groups) as implemented in GraphPad Prism (version 4; GraphPad Software). Graphpad Prism software was used to plot concentration-effect curves and determine the drug concentration that inhibited the growth of cell lines by 50% compared to the control (IC50). A p-value of 0.05 or less was considered significant. Combination index (CI) values, as calculated by CompuSyn software (Chou and Martin, 2007), were used to evaluate the interaction between BO-1055 and a second drug (Topotecan, SN38, Doxorubicin or PU-H71). The Chou-Talalay method was used to quantify the synergism (CI < 1), additive effect (CI = 1) and antagonism (CI > 1) of various drug combinations.

[8] = 30mg/kg/dose on days 1,3,5,8 and 10, day 10, mean, n=4

Compound: CN(C)CCNC(=O)c1cccc(NC(=O)Nc2ccc(N(CCCl)CCCl)cc2)c1 [BO-1055]
- ALT [1, 8]: 89.50 U/L
- AST [1, 8]: 74.25 U/L
- BASO [1, 8]: 0.45%
- BASO# [1, 8]: 0.02 K/uL
- BUN [1, 8]: 24.50 mg/dL
- BUN/CREA ratio [1, 8]: 125.40
- CREA [1, 8]: 0.20 mg/dL
- DBIL [1, 8]: 0.00 mg/dL
- EO [1, 8]: 2.93%
- EO# [1, 8]: 0.13 K/uL
- GLU [1, 8]: 166.00 mg/dL
- HCT [1, 8]: 46.30%
- HGB [1, 8]: 13.08 g/dL
- IBIL [1, 8]: 0.13 mg/dL
- LYMPH [1, 8]: 51.63%
- LYMPH# [1, 8]: 2.90 K/uL
- MCH [1, 8]: 14.40 pg
- MCHC [1, 8]: 28.28 g/dL
- MCV [1, 8]: 51.03 fL
- MONO [1, 8]: 7.80%
- MONO# [1, 8]: 0.39 K/uL
- MPV [1, 8]: 6.38 fL
- NEUT [1, 8]: 37.20%
- NEUT# [1, 8]: 1.90 K/uL
- PDW [1, 8]: 7.40 fL
- PLT [1, 8]: 1108.25 K/uL
- RBC [1, 8]: 9.08 M/uL
- RDW-CV [1, 8]: 23.18%
- RDW-SD [1, 8]: 32.48 fL
- RET [1, 8]: 4.72%
- RET# [1, 8]: 426.88 K/uL
- TBIL [1, 8]: 0.23 mg/dL
- TP [1, 8]: 3.77 g/dL
- WBC# [1, 8]: 5.34 K/uL
- change in hematocrit, platelet count or neutrophil count ([1]; day 10): did not reveal a significant change
- hematologic toxicity ([1]; day 10 after 5 doses at 30mg/kg/dose): not observed
- IC50 [2]: submicromolar
- IC50 [3]: submicromolar
- olive moment relative to radiation (XRT, 8Gy) [4]: comparable
- comet tail size (DNA breaks) ([4]; increasing concentration): increased tail size
- olive moment relative to radiation (XRT, 8Gy) [5]: relatively less
- elimination [6]: slow elimination
- tissue distribution [6]: rapid distribution to all organs except brain
- drug interaction (combination index) ([7]; BO-1055 combined with PU-H71, A673, 72h): synergistic
- drug interaction (combination index) ([7]; BO-1055 combined with SN-38, A673, 72h): highly synergistic
- drug interaction (combination index) ([7]; BO-1055 combined with doxorubicin, A673, 72h): synergistic
- drug interaction (combination index) ([7]; BO-1055 combined with topotecan, A673, 72h): synergistic
